Data as given in PubChem BioAssay (NCI).
Where “and” joins values, the source holds several entries; their conditions need not be identical. Equal values may be shown once.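 Briefly, cells in 96-well plates were exposed to five compound concentrations for 48 h, and endpoints were estimated by linear interpolation. Here, GI50 denotes the concentration required for 50% inhibition of growth. TGI is the concentration that stops growth completely.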

What was measured:
Assay in all cases: NCI tumour cell line growth inhibition, 48 h
[1] = system: SK-MEL-2 melanoma
[2] = system: A498 renal
[3] = system: IGROV1 ovarian
[4] = system: OVCAR-4 ovarian
[5] = system: HT29 colon
[6] = system: HOP-18 NSCLC
[7] = system: SK-MEL-28 melanoma
[8] = system: KM12 colon
[9] = system: SF-539 CNS
[10] = system: SNB-75 CNS
[11] = system: SNB-78 CNS
[12] = system: UACC-257 melanoma
[13] = system: SK-MEL-5 melanoma
[14] = system: HOP-92 NSCLC
[15] = system: EKVX NSCLC
[16] = system: SW-620 colon
[17] = system: SK-OV-3 ovarian
[18] = system: CAKI-1 renal
[19] = system: A549 NSCLC
[20] = system: CCRF-CEM leukemia
[21] = system: RPMI-8226 leukemia
[22] = system: HCT-116 colon
[23] = system: NCI-H460 lung
[24] = system: MOLT-4 leukemia
[25] = system: NCI/ADR-RES ovarian
[26] = system: DLD-1 colon
[27] = system: HOP-62 NSCLC
[28] = system: SNB-19 CNS
[29] = system: SN12K1 renal
[30] = system: OVCAR-3 ovarian
[31] = system: P388 leukemia
[32] = system: SN12C renal
[33] = system: U251 CNS
[34] = system: UACC-62 melanoma
[35] = system: MCF7 breast
[36] = system: HCT-15 colon
[37] = system: SF-295 CNS
[38] = system: COLO 205 colon
[39] = system: M19-MEL melanoma
[40] = system: K-562 leukemia
[41] = system: NCI-H23 lung
[42] = system: DMS 114 small cell lung
[43] = system: HCC-2998 colon
[44] = system: DMS 273 small cell lung
[45] = system: OVCAR-5 ovarian
[46] = system: SF-268 CNS
[47] = system: XF 498 CNS
[48] = system: UO-31 renal
[49] = system: OVCAR-8 ovarian
[50] = system: P388/ADR leukemia
[51] = system: NCI-H522 lung
[52] = system: NCI-H226 lung
[53] = system: RXF 393 renal
[54] = system: KM20L2 colon
[55] = system: LOX IMVI melanoma
[56] = system: HL-60(TB) leukemia
[57] = system: MALME-3M melanoma
[58] = system: DU-145 prostate
[59] = system: 786-0 renal
[60] = system: T-47D breast
[61] = system: TK-10 renal
[62] = system: PC-3 prostate
[63] = system: ACHN renal
[64] = system: BT-549 breast
[65] = system: MDA-MB-231 breast
[66] = system: MDA-N
[67] = system: SR leukemia
[68] = system: M14 melanoma
[69] = system: HS 578T breast
[70] = system: MDA-MB-435

## Brc1ccc2[nH]c3c(C4=NCCC4)nccc3c2c1
[1]
  TGI: > 53300 nM
[2]
  TGI: > 49200 nM
[3]
  TGI: > 78700 nM
[4]
  TGI: > 87700 nM
[5]
  TGI: > 38700 nM
[6]
  TGI: > 85800 nM
[7]
  TGI: > 100000 nM
[8]
  TGI: > 100000 nM
[9]
  TGI: > 25400 nM
[10]
  TGI: > 82000 nM
[11]
  TGI: > 100000 nM
[12]
  TGI: > 49700 nM
[13]
  TGI: > 34200 nM
[14]
  TGI: > 74200 nM
[15]
  TGI: 57300 nM
[16]
  TGI: > 86600 nM
[17]
  TGI: > 100000 nM
[18]
  TGI: > 53100 nM
[19]
  TGI: > 100000 nM
[20]
  TGI: > 30100 nM
[21]
  TGI: > 36000 nM
[22]
  TGI: > 23200 nM
[23]
  TGI: > 32800 nM
[24]
  TGI: > 30400 nM
[25]
  TGI: > 100000 nM
[26]
  TGI: > 43400 nM
[27]
  TGI: > 42200 nM
[28]
  TGI: > 100000 nM
[29]
  TGI: > 25700 nM
[30]
  TGI: > 100000 nM
[31]
  TGI: > 21700 nM
[32]
  TGI: > 91600 nM
[33]
  TGI: > 38800 nM
[34]
  TGI: 30500 nM
[35]
  TGI: > 47600 nM
[36]
  TGI: > 69200 nM
[37]
  TGI: > 36700 nM
[38]
  TGI: > 59600 nM
[39]
  TGI: 84400 nM
[40]
  TGI: > 41900 nM
[41]
  TGI: > 79700 nM
[42]
  TGI: > 57800 nM
[43]
  TGI: 39100 nM
[44]
  TGI: > 76000 nM
[45]
  TGI: > 29700 nM
[46]
  TGI: > 70400 nM
[47]
  TGI: > 72200 nM
[48]
  TGI: 37000 nM
[49]
  TGI: > 100000 nM
[50]
  TGI: > 23800 nM
[51]
  TGI: > 100000 nM
[52]
  TGI: 26400 nM
[53]
  TGI: 71200 nM
[54]
  TGI: 23300 nM
[55]
  TGI: > 46600 nM
[56]
  TGI: 18600 nM
[57]
  TGI: 16100 nM

## COC(=O)[C@@]12OC[C@]34[C@H]([C@@H](O)[C@@H]1O)[C@@]1(C)CC(=O)C(O)=C(C)[C@@H]1C[C@H]3OC(=O)[C@H](OC(=O)/C=C(\C)C(C)C)[C@@H]24
[1]
  GI50: 5.17 nM
  TGI: 19.5 nM and 30.3 nM
[2]
  GI50: 4.87 nM
  TGI: 10.9 nM and 22 nM
[3]
  TGI: 15.3 nM and 59 nM
[58]
  GI50: 20 nM
  TGI: 45.1 nM and 29.3 nM
[59]
  GI50: 21.7 nM
  TGI: 72 nM and < 12 nM and 42.9 nM
[4]
  GI50: 3.34 nM
  TGI: 17 nM and 22.5 nM
[5]
  TGI: 16.1 nM and 71.8 nM
[6]
  GI50: 1.61 nM
  TGI: 16 nM and 84.8 nM
[7]
  TGI: 14.2 nM and < 33.9 nM and 31.7 nM
[60]
  TGI: 58.1 nM
[8]
  TGI: 30 nM and 146 nM and 57.4 nM
[9]
  TGI: 6.11 nM and 23.4 nM
[10]
  TGI: 18.6 nM and 20.3 nM
[11]
  GI50: 0.89 nM
  TGI: 8.99 nM and 42.7 nM and 70.7 nM
[12]
  TGI: 31.6 nM and 30.5 nM
[61]
  GI50: 23.5 nM
  TGI: 71.9 nM and 33.3 nM
[13]
  TGI: 3.33 nM and 27.8 nM
[14]
  TGI: 37.8 nM and 92.1 nM
[15]
  TGI: 51.7 nM and 28.3 nM and 31.6 nM
[17]
  TGI: 25.4 nM and 175 nM
[18]
  TGI: 55 nM and 29.5 nM and 159 nM
[19]
  TGI: 16.8 nM and < 16.3 nM and 47.3 nM
[20]
  GI50: 2.24 nM
  TGI: 18.4 nM and 182 nM
[21]
  TGI: 12.9 nM and < 40.9 nM and 54.5 nM
[22]
  TGI: 14.4 nM and 47.8 nM
[23]
  TGI: 5.67 nM and 43.5 nM
[27]
  TGI: 34.2 nM and < 11 nM and 21.6 nM
[28]
  GI50: 4.64 nM
  TGI: 21.4 nM and 145 nM
[62]
  GI50: 20 nM
  TGI: 51.2 nM and 12.8 nM and 28 nM
[29]
  TGI: 54.1 nM
[30]
  TGI: 15.1 nM and 91.1 nM
[31]
  TGI: 109 nM
[32]
  TGI: 58.2 nM and 31.7 nM and 102 nM
[33]
  TGI: 20.6 nM and 65.7 nM
[63]
  GI50: 20 nM
  TGI: 26 nM and 12.4 nM and 24.5 nM
[64]
  GI50: 26.2 nM
  TGI: 60 nM and 15.6 nM and 21.4 nM
[65]
  GI50: 22.8 nM
  TGI: 82.2 nM and 75.7 nM
[34]
  TGI: 13.1 nM and 23 nM
[35]
  TGI: 21 nM and 26.4 nM
[36]
  TGI: 58.8 nM and 56.2 nM and 55 nM
[37]
  TGI: 34.5 nM and 58.2 nM
[38]
  TGI: 16.7 nM and 58.6 nM
[41]
  TGI: 15 nM and 68.8 nM
[42]
  GI50: 0.0354 nM
  TGI: 0.286 nM
[43]
  TGI: 3.42 nM
[66]
  GI50: 20 nM
  TGI: 34.5 nM and 32.1 nM
[44]
  TGI: 0.177 nM
[67]
  TGI: 36.9 nM
[47]
  TGI: 21.2 nM
[48]
  TGI: 83.4 nM and 142 nM and 405 nM
[49]
  TGI: 40.6 nM and 56.1 nM
[68]
  TGI: 10.9 nM
[69]
  GI50: 20 nM
  TGI: 20.9 nM and 27.3 nM
[50]
  TGI: 692 nM
[51]
  TGI: 7.23 nM
[52]
  TGI: 7.71 nM and 23.6 nM
[53]
  TGI: 30.3 nM and 29.7 nM
[70]
  TGI: 41.5 nM and 12.8 nM
[56]
  TGI: 5.83 nM
[57]
  TGI: 4.98 nM and 26.3 nM
